The values below come from patent publication US12545669B2, “Cycloalkyl and heterocycloalkyl benzisoxazole sulfonamide derivatives” (Pfizer Inc., priority 2019, dated 2026).

Like-named read-outs stand apart in the source and are kept apart here.

The target of assay [1] is KAT6A (Homo sapiens (Human), UniProt Q92794). As to the kind of experiment: KAT assay protocol (SAMDI mass spectrometry), KAT6A. Format: biochemical. Conditions: for inhibition at 1 µM: 1 μM compound; for IC50: 1 μM AcCoA; for Ki: 10 μM AcCoA, Morrison equation. The method, then: Biological Assay Section 1 KAT Assay Protocol:
A. Compound Preparation • 1. Prepare 10 mM stock solutions in 100% DMSO from solid material • 2. Serial dilute 10 mM, 1 mM or 0.1 mM compound stocks 3-fold in 100% DMSO for 11-point dose response
B. Reagent Preparation • 1. Prepare 1× assay buffer containing 10 mM Tris HCL pH 8.0, 2.5 mM NaCl, 0.5 mM EDTA, 0.005% BSG and 0.02% Tween-20 • 2. Dilute Histone peptide (CPC Scientific) and AcCoA (Sigma) together in assay buffer to 2×. • 3. Dilute KAT enzyme in assay buffer to 2×.
C. Enzyme Reaction • 1. Final reaction conditions for each KAT assay in a 20 ul assay reaction volume: • i. […] Add 0.5 ul of diluted compound to the assay plate (384-well V-bottom polypropylene plates) or 0.5 ul of DMSO for control wells. • 3. Add 10 ul of 2× Histone peptide/2× AcCoA mix to the assay plate. • 4. Add 10 ul of 2× enzyme to the assay plate. • 5. Stop the reaction after the indicated time with the addition of 2 ul of 5% formic acid • 6. Each reaction was analyzed using self-assembled monolayer desorption/ionization time-of-flight mass spectrometry (Mrksich, Milan (2008) Mass Spectrometry of Self-Assembled Monolayers: A New Tool for Molecular Surface Science ACS Nano 2008 2 (1), 7-18; SAMDI Tech, Inc. (Chicago, IL)). • 7. Area under the curve (AUC) for both substrate and product peaks was determined for KAT6A at M.W. 2723 [Substrate+H]^+ and 2765 [Product+H]^+ with a +/−1 Da tolerance, respectively. • 8. Percent conversion to product was calculated by: AUCProduct/(AUCSubstrate+AUCProduct).
D. Data Analysis • 1. IC50 values were determined by fitting the % conversion at each inhibitor concentration to the 4-parameter IC50 equation using Pfizer proprietary curve fitting software. • 2. Ki values were determined by fitting the % conversion at each inhibitor concentration to the Morrison equation for tightbinding competitive inhibitors using Pfizer proprietary curve fitting software. Materials
KAT enzymes were expressed using a baculovirus expression system and purified at Pfizer, La Jolla. Histone H3 (1-21) peptide ([…], SEQ ID NO:3) was purchased from CPC Scientific (Sunnyvale, CA). Acetyl coenzyme A was purchased from Sigma-Aldrich (St. Louis, MO). All other biochemical reagents were purchased from Sigma-Aldrich or ThermoFisher Scientific (Waltham, MA).
[…] 10 ul of 2× Histone peptide/AcCoA mix was added to a 384-well V-bottom polypropylene assay plate containing 0.5 ul of serially diluted test compound in 100% dimethyl sulfoxide (DMSO). To start the reaction, 10 ul of 2× enzyme solution was added to the assay plate. KAT assays were terminated after 30-60 minutes with the addition of 2 ul of 5% formic acid. KAT6A used histone H3 (1-21) peptide. The final enzyme concentration for KAT6A was 15 nM. Each reaction was analyzed using self-assembled monolayer desorption/ionization time-of-flight mass spectrometry (Mrksich, Milan (2008) Mass Spectrometry of Self-Assembled Monolayers: A New Tool for Molecular Surface Science ACS Nano 2008 2 (1), 7-18; SAMDI Tech, Inc. (Chicago, IL)).
Area under the curve (AUC) for both substrate and product peaks was determined for KAT6A at M.W. 2723 [Substrate+H]^+ and 2765 [Product+H]^+ with a +/−1 Da tolerance, respectively. Percent conversion to product was calculated by: AUCProduct/(AUCSubstrate+AUCProduct). IC50 values were determined by fitting the % conversion at each inhibitor concentration to the 4-parameter IC50 equation using Pfizer proprietary curve fitting software. Ki values were determined by fitting the % conversion at each inhibitor concentration to the Morrison equation for tightbinding competitive inhibitors using Pfizer proprietary curve fitting software.

The target in assay [2] is MOZ-KAT6A (Homo sapiens (Human), UniProt Q92794). The assay can be described thus: biochemical.
MOZ-KAT6A, sequence (Q92794 other isoform, or with tags, fused parts or gaps): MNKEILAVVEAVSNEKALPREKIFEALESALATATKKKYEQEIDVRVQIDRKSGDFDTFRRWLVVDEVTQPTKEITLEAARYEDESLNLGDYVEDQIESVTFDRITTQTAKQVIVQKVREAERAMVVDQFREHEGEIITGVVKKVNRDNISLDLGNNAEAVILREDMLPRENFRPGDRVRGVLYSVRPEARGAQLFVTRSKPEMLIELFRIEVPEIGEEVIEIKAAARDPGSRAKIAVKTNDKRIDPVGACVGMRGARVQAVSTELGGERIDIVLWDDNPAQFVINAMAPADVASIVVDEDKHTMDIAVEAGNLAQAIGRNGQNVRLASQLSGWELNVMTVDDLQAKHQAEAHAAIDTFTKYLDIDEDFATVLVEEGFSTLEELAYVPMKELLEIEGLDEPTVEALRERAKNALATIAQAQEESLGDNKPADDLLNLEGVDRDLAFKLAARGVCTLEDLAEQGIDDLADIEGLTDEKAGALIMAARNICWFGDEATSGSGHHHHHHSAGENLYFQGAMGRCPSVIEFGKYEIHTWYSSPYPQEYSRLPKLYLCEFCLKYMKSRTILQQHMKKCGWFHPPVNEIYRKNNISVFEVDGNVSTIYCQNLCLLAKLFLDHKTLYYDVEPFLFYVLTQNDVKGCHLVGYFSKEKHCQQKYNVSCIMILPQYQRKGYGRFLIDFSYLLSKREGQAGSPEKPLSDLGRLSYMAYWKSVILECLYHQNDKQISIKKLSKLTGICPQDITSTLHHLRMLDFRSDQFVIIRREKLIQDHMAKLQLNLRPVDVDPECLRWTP
Assay [3] deals with TIP60-KAT5 (Homo sapiens (Human), UniProt Q92993). The assay can be described thus: biochemical.
TIP60-KAT5, sequence (Q92993 other isoform, or with tags, fused parts or gaps): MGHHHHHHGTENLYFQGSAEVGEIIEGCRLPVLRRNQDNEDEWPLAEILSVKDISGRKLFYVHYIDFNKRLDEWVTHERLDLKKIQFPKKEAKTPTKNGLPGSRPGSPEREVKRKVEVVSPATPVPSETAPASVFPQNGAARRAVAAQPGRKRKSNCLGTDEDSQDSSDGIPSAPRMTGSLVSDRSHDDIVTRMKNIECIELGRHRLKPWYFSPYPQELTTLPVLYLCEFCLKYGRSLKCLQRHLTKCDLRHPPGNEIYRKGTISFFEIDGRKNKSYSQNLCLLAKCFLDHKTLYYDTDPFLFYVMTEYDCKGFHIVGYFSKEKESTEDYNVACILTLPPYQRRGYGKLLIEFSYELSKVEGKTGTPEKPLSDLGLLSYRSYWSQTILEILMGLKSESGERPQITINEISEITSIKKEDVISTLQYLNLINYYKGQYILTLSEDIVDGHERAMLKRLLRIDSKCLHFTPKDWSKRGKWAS
For assay [4], the target named is HBO1-KAT7 (Homo sapiens (Human), UniProt O95251). The assay can be described thus: biochemical.
HBO1-KAT7, sequence (O95251 other isoform, or with tags, fused parts or gaps): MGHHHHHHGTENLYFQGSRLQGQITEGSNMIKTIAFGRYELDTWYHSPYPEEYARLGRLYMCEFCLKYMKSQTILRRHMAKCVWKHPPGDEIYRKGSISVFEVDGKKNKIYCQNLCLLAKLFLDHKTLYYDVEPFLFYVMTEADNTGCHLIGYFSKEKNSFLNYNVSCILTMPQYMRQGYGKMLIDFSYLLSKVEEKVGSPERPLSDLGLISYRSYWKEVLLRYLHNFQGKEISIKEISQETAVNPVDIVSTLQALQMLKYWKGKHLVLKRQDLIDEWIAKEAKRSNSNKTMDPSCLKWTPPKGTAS
[5] abbreviates: read-out: KAT6A IC50 at 1 μM AcCoA.

KAT6A, sequence (Q92794 whole entry): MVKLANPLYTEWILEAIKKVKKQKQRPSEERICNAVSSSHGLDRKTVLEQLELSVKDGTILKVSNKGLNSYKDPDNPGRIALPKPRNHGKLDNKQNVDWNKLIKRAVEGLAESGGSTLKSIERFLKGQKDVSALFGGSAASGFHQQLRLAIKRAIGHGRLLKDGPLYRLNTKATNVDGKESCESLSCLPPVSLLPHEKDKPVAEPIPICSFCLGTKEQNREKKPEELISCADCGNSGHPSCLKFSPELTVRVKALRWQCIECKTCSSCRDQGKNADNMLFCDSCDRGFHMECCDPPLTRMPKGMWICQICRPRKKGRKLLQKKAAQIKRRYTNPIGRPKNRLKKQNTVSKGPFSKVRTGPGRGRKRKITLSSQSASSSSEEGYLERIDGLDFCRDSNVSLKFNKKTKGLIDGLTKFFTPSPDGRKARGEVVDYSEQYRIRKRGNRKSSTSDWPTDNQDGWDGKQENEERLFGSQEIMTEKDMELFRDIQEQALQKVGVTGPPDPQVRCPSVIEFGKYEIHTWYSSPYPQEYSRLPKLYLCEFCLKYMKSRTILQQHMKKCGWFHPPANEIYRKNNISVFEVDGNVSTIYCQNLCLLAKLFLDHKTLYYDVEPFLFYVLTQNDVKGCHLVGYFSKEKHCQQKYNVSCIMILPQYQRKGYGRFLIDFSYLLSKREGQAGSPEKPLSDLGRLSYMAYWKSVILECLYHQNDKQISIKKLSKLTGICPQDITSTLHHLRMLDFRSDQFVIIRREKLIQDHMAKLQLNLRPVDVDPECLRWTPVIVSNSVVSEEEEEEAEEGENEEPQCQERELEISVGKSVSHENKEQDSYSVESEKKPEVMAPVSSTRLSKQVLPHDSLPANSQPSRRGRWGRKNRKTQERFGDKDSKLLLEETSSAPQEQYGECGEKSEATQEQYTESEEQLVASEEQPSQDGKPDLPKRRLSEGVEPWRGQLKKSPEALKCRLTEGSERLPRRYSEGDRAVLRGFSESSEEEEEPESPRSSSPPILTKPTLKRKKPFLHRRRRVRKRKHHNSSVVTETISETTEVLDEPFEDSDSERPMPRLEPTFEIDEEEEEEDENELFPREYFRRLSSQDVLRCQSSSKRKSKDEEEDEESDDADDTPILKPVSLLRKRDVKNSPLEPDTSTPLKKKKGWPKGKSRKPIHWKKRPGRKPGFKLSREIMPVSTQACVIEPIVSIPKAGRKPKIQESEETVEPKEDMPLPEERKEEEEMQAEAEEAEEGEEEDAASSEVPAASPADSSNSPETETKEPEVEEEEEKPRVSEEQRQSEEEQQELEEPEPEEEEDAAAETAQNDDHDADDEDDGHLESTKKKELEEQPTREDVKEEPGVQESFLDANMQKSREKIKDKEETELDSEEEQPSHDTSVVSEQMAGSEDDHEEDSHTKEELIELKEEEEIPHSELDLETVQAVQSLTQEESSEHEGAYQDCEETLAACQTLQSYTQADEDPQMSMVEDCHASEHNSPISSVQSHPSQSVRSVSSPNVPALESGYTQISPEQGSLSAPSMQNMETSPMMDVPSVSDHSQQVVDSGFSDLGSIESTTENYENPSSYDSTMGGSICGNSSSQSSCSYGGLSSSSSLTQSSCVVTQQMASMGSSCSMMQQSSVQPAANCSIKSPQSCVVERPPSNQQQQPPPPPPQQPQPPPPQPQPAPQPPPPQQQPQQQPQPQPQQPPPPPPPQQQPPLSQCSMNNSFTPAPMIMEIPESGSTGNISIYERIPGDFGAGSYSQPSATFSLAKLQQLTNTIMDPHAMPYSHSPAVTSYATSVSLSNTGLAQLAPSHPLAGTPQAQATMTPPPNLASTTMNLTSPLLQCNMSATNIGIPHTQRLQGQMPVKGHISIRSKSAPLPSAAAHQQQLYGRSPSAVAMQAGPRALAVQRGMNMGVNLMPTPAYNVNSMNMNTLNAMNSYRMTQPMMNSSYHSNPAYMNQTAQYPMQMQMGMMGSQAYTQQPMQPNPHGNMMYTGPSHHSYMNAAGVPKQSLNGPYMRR

For orientation: inhibition means the relative decrease from the control value, in per cent. For the compound `COc1cc(Cn2cccn2)cc2onc(NS(=O)(=O)CCCC3CCOCC3)c12` [Example 104], the inhibition at 1 µM in assay [1] was determined as 80%.

For the compound `COc1cc(Cn2cccn2)cc2onc(NS(=O)(=O)CC34CCCN(CC3)C4)c12` (centres unmarked) [Example 105], the inhibition at 1 µM in assay [1] turned out to be 101%.

Consider `COc1cc(Cn2cccn2)cc2onc(NS(=O)(=O)CCCC3CCOC3)c12` (centres unmarked) [Example 106], for which, in assay [1], the inhibition at 1 µM amounted to 48%.

Turning to `COc1cc(Cn2cccn2)cc2onc(NS(=O)(=O)CCC3CCCCO3)c12` (centres unmarked) [Example 108], the inhibition at 1 µM in assay [1] was 67%.

In the case of `COc1cc(Cn2cccn2)cc2onc(NS(=O)(=O)CCC3CCOC3)c12` (centres unmarked) [Example 112], in assay [1], the inhibition at 1 µM stood at 68%.

With `COc1cc(Cn2cccn2)cc2onc(NS(=O)(=O)CCC3CCOCC3)c12` [Example 117], the inhibition at 1 µM in assay [1] was 91%.

For the compound `COc1cc(Cn2cccn2)cc2onc(NS(=O)(=O)CC3(C)CCOCC3)c12` [Example 118], the inhibition at 1 µM in assay [1] amounted to 56%.

Regarding `COc1cc(Cn2cccn2)cc2onc(NS(=O)(=O)CC3CN(C)CCO3)c12` (centres unmarked) [Example 119], in assay [1], the inhibition at 1 µM was 58%.

On to `COc1cc(Cn2cccn2)cc2onc(NS(=O)(=O)CC3CCCC4(CCC4)O3)c12` (centres unmarked) [Example 120], for which, in assay [1], the inhibition at 1 µM is 35%.

With `COc1cc(Cn2cccn2)cc2onc(NS(=O)(=O)CC3CCC4(CCC4)O3)c12` (centres unmarked) [Example 121], in assay [1], the inhibition at 1 µM stood at 75%.

The IC50 is the point on the concentration scale where inhibition reaches its midpoint. Usually Ki stands for the dissociation constant of the complex between target and ligand, obtained from inhibition or displacement. For the compound `COc1cc(Cn2cccn2)cc2onc(NS(=O)(=O)CC3(OC(C)C)CCCO3)c12` (centres unmarked) [Example 122], in assay [1], the inhibition at 1 µM worked out at 85%. In assay [1] (KAT6A IC50 at 1 μM AcCoA), this compound displayed an IC50 of 38.4 nM. In assay [1] (KAT6A Ki at 10 μM AcCoA), this compound had a Ki of 14.9 nM.

For `COc1cc(Cn2cccn2)cc2onc(NS(=O)(=O)CC3CCCCC3)c12` [Example 123], the IC50 in assay [2] stood at 15 nM; in assay [3] it was 9040 nM; in assay [4], 1260 nM; in assay [1] (KAT6A IC50 at 1 μM AcCoA), 28.9 nM. In assay [1], the inhibition at 1 µM was 85%. Besides, the affinity in assay [1] (KAT6A Ki at 10 μM AcCoA) corresponds to a Ki of 5.44 nM.

`COc1cc(Cn2cccn2)cc2onc(NS(=O)(=O)C3CCCCC3)c12` [Example 124]: the IC50 amounted to 30 nM in assay [2], 2400 nM in assay [3], 440 nM in assay [4] and 117 nM in assay [1] (KAT6A IC50 at 1 μM AcCoA). For the same compound, in assay [1], the inhibition at 1 µM is 88%.

Turning to `COc1cc(Cn2cccn2)cc2onc(NS(=O)(=O)CCOCC3CCC3)c12` [Example 126], the IC50 in assay [1] (KAT6A IC50 at 1 μM AcCoA) turned out to be 133 nM.

In assay [1] (KAT6A IC50 at 1 μM AcCoA), `COc1cc(Cn2cccn2)cc2onc(NS(=O)(=O)CC(C)OCC3CCCC3)c12` (centres unmarked) [Example 127] registered an IC50 of 36 nM.

For the compound `COc1cc(Cn2cccn2)cc2onc(NS(=O)(=O)CC(C)C)c12` [Example 128], the IC50 in assay [1] (setting [5]) is 128 nM.

Turning to `COc1cc(Cn2cccn2)cc2onc(NS(=O)(=O)CCN3CCCC3)c12` [Example 129], the inhibition at 1 µM in assay [1] came out at 16%.

The compound `COc1cc(Cn2cccn2)cc2onc(NS(=O)(=O)CCN3CCOCC3)c12` [Example 130] yielded an IC50 in assay [1] (KAT6A IC50 at 1 μM AcCoA) of 187 nM.

With `COc1cc(Cn2cccn2)cc2onc(NS(=O)(=O)NC3CCCCC3)c12` [Example 131], in assay [1] (setting [5]), the IC50 was determined as 6 nM. Moreover, the Ki in assay [1] (read-out: KAT6A Ki at 10 μM AcCoA) turned out to be 3 nM.

With `COc1cc(Cn2cccn2)cc2onc(NS(=O)(=O)N(C)C3CCCCC3)c12` [Example 132], half-maximal inhibition in assay [1] (KAT6A IC50 at 1 μM AcCoA) (IC50) required 9 nM. In addition, the affinity in assay [1] (KAT6A Ki at 10 μM AcCoA) corresponds to a Ki of 4 nM.

As to `COc1cc(Cn2cccn2)cc2onc(NS(=O)(=O)C[C@H]3C[C@@H](C)C3)c12` [Example 133], inhibition in assay [1] (KAT6A IC50 at 1 μM AcCoA) was half-maximal at 40 nM (IC50).

On to `COc1cc(Cn2cccn2)cc2onc(NS(=O)(=O)C[C@H]3C[C@H](C)C3)c12` [Example 134], for which the midpoint of inhibition in assay [1] (KAT6A IC50 at 1 μM AcCoA), the IC50, lay at 40 nM.
